From patent US10508118B2, “Pyrimidopyrrole compounds, method for preparing the same, pharmaceutical compositions comprising the same and uses thereof” (Xiamen University, priority 2015, dated 2019)
Read-outs that look alike come from different tables or passages of the source.

Tests used:
Assay type in all cases: cell-based
EML4-ALK-BaF3 = target: T1, EML4-ALK-BaF3 (Homo sapiens, UniProt Q9UM73); assay: Growth inhibition of EML4-ALK transformed BaF3 cells (MTS); conditions: EML4-ALK-BaF3 cells, 48 hours, MTS
T1 construct: expressed in transfected cells; host or cells: Ba/F3 cells; the other entry of the earlier key: EML4 (Q9HC35, Echinoderm microtubule-associated protein-like 4)
Procedure: (§1) If compounds can inhibit the activity of ALK kinase or the activity of ALK signaling pathway, they can inhibit the growth of ALK transformed Ba/F3 cells. […] The broad-spectrum toxicity of compounds can be evaluated by determining the effect of the compounds on the growth of wild type BaF3 cells.
(§2) 1) Medium: DMEM (Dulbecco's modified eagle medium) or RPMI1640 (containing 10% fetal bovine serum, 100 μg/mL ampicillin, 100 μg/mL streptomycin).)
(§3) Reagents: MTS solution (2 mg/mL MTS (3-(4,5-dimethylthiazol-2-yl)-5-(3-carboxymethoxyphenyl)-2-(4-sulfophenyl)-2H-tetrazolium, inner salt); 100 μg/mL PES ([…])).
(§4) 3) Test of compound: Transformed Ba/F3 cells (EML4-ALK-BaF3, EML4-ALK(L1196M)-BaF3, NPM-ALK-BaF3) (2×10^4/well) were distributed into 96-well plates, with volume of cell sap of 90 μL, 10 μL of compounds in gradient concentration (the highest concentration 10 was μM, followed by 1/3 step by step dilution, a total of 8 concentrations were set, the system contained 0.1% DMSO (dimethyl sulfoxide)). The cell plates mixed with compounds were cultured in a cell incubator (37° C.; 5% CO2) for 48 hours, and the added 20 μL of MTS reaction solution, mixed and incubated in cell incubator (37° C.; 5% CO2) for 1-4 hours. The OD value at a wavelength of 490 nm was measured using eliasa (VARIOSKAN FLASH, Thermo). Three parallels were set up for each group, with a final concentration of 0.1% DMSO as negative control, and with medium without cells and compounds as blank control.
(§5) 4) Calculation of IC50 value: the semi inhibitory concentration of the compound acting on the cells was calculated using GradPad Prism 5 software according to the cell inhibitory rate measured.

EML4-ALK (L1196M)-BaF3 = target: T2, EML4-ALK (L1196M)-BaF3 (Homo sapiens, UniProt Q9UM73, L1196M); assay: Growth inhibition of EML4-ALK (L1196M) transformed BaF3 cells (MTS); conditions: 48 hours
T2 construct: expressed in transfected cells; host or cells: Ba/F3 cells; the other entry of the earlier key: EML4 (Q9HC35, Echinoderm microtubule-associated protein-like 4)
Procedure: as §1, §2, §3, §4, §5

NPM-ALK-BaF3 = target: T3, NPM-ALK-BaF3 (Homo sapiens, UniProt Q9UM73); assay: Growth inhibition of NPM-ALK transformed BaF3 cells (MTS); conditions: 48 hours, Table 11
T3 construct: expressed in transfected cells; host or cells: Ba/F3 cells; the other entry of the earlier key: NPM1 (P06748, Nucleophosmin)
Procedure: (§6) The activity of compounds against ALK kinase was evaluated by inhibiting the growth of cellular ALK kinase EML4-ALK-BaF3, EML4-ALK (L1196M)-BaF3, NPM-ALK-BaF3, and wild type BaF3 (Proc. Natl. Acad. Sci. USA., 2006, 103, 3153-8.) The growth of cellular ALK kinase EML4-ALK-BaF3, EML4-ALK(L1196M)-BaF3, and NPM-ALK-BaF3 depends on their kinase activity. If compounds can inhibit the activity of ALK kinase or the activity of ALK signaling pathway, they can inhibit the growth of ALK transformed Ba/F3 cells. […] The broad-spectrum toxicity of compounds can be evaluated by determining the effect of the compounds on the growth of wild type BaF3 cells.
as §2, §3
as §4, with “control. The inhibition rate of cell growth was calculated by the following formula: Cell inhibition rate %=1−(OD experimental group−OD blank group)/(OD negative group−OD blank group)*100%” for “control.”
as §5

wild type BaF3 = assay: Growth inhibition of wild type BaF3 cells (broad-spectrum toxicity); conditions: Mus musculus, BaF3, 48 h, MTS
Procedure: as §6, §2, §3
as §4, with “control. The inhibition rate of cell growth was calculated by the following formula: Cell inhibition rate %=1−(OD experimental group−OD blank group)/(OD negative group−OD blank group)*100%” for “control.”
as §5

[1] = Table 11, read-out: EML4-ALK (L1196M) (IC50 nM)

SMILES | IC50 (EML4-ALK-BaF3; Table 11) | IC50 (EML4-ALK (L1196M)-BaF3; [1]) | IC50 (NPM-ALK-BaF3) | IC50 (EML4-ALK-BaF3; Table 12) | IC50 (EML4-ALK (L1196M)-BaF3; Table 12, read-out: L1196M (IC50 nM)) | IC50 (wild type BaF3; Table 11) | IC50 (wild type BaF3; Table 12)
COc1cc(N2CCN(C)CC2)ccc1Nc1nc(Nc2ccccc2SC)c2[nH]ccc2n1 [IA-1] | 1370 nM | 1800 nM | 703 nM |  |  | ~2790 nM | 
CSc1ccccc1Nc1nc(Nc2ccc(N3CCC(O)CC3)cc2)nc2cc[nH]c12 [IA-2] | 649 nM | 761 nM | 1030 nM |  |  | 1520 nM | 
CSc1ccccc1Nc1nc(Nc2ccc(S(N)(=O)=O)cc2)nc2cc[nH]c12 [IA-3] | 2420 nM | 6630 nM | 12900 nM |  |  | 7710 nM | 
COc1cc(N2CCN(C)CC2)ccc1Nc1nc(Nc2ccccc2SC(C)C)c2[nH]ccc2n1 [IB-1] | ~895 nM | ~2410 nM | 1450 nM |  |  | ~2800 nM | 
CC(C)Sc1ccccc1Nc1nc(Nc2ccc(N3CCC(O)CC3)cc2)nc2cc[nH]c12 [IB-2] | 786 nM | 1740 nM | 1770 nM |  |  | 1920 nM | 
CC(C)Sc1ccccc1Nc1nc(Nc2ccc(S(N)(=O)=O)cc2)nc2cc[nH]c12 [IB-3] | 4220 nM | 8700 nM | 8830 nM |  |  | > 10000 nM | 
COc1cc(N2CCN(C)CC2)ccc1Nc1nc(Nc2ccccc2S(C)(=O)=O)c2[nH]ccc2n1 [IC-1] | 3930 nM | ~7250 nM | ~4560 nM |  |  | > 10000 nM | 
COc1cc(N2CCC(N3CCN(C)CC3)CC2)ccc1Nc1nc(Nc2ccccc2S(C)(=O)=O)c2[nH]ccc2n1 [IC-2] | 3680 nM | ~6860 nM | ~4910 nM |  |  | ~8770 nM | 
CS(=O)(=O)c1ccccc1Nc1nc(Nc2ccc(N3CCC(O)CC3)cc2)nc2cc[nH]c12 [IC-3] | > 10000 nM | > 10000 nM | > 10000 nM |  |  | > 10000 nM | 
CS(=O)(=O)c1ccccc1Nc1nc(Nc2ccc(S(N)(=O)=O)cc2)nc2cc[nH]c12 [IC-4] | > 10000 nM | > 10000 nM | > 10000 nM |  |  | > 10000 nM | 
CN1CCN(c2ccc(Nc3nc(Nc4ccccc4S(C)(=O)=O)c4[nH]ccc4n3)cc2)CC1 [IC-5] | 4080 nM | ~3350 nM | 5260 nM |  |  | 4590 nM | 
COc1cc(N2CCN(C)CC2)ccc1Nc1nc(Nc2ccccc2S(=O)(=O)C(C)C)c2[nH]ccc2n1 [ID-1] | 477 nM | 737 nM | 796 nM |  |  | ~8390 nM | 
CC(C)S(=O)(=O)c1ccccc1Nc1nc(Nc2ccc(N3CCN(C)CC3)cc2)nc2cc[nH]c12 [ID-2] | 1170 nM | 2030 nM | ~2850 nM |  |  | ~8310 nM | 
CC(C)S(=O)(=O)c1ccccc1Nc1nc(Nc2ccc(N3CCC(O)CC3)cc2)nc2cc[nH]c12 [ID-4] | 2860 nM | 6150 nM | ~8930 nM |  |  | > 10000 nM | 
CC(C)S(=O)(=O)c1ccccc1Nc1nc(Nc2ccc(S(N)(=O)=O)cc2)nc2cc[nH]c12 [ID-5] | > 10000 nM | > 10000 nM | > 10000 nM |  |  | > 10000 nM | 
Cc1cc(Nc2nc(Nc3ccccc3S(=O)(=O)C(C)C)c3[nH]ccc3n2)c(OC(C)C)cc1C1CCN(C)CC1 [ID-6] | 1510 nM | ~2650 nM | 1020 nM |  |  | ~2840 nM | 
COc1cc(C2CCN(C)CC2)c(C)cc1Nc1nc(Nc2ccccc2S(=O)(=O)C(C)C)c2[nH]ccc2n1 [ID-7] | 544 nM | ~1080 nM | ~1170 nM |  |  | ~2960 nM | 
CC(C)S(=O)(=O)c1ccccc1Nc1nc(Nc2cnn(C3CCN(C)CC3)c2)nc2cc[nH]c12 [ID-8] | 5170 nM | 5680 nM | > 10000 nM |  |  | > 10000 nM | 

Second part, led by results:

IC50 (EML4-ALK-BaF3; Table 11) | IC50 (EML4-ALK (L1196M)-BaF3; [1]) | IC50 (NPM-ALK-BaF3) | IC50 (EML4-ALK-BaF3; Table 12) | IC50 (EML4-ALK (L1196M)-BaF3; Table 12, read-out: L1196M (IC50 nM)) | SMILES | IC50 (wild type BaF3; Table 11) | IC50 (wild type BaF3; Table 12)
1470 nM | 1160 nM | 1800 nM |  |  | COC(=O)c1ccccc1Nc1nc(Nc2ccc(N3CCN(C)CC3)cc2OC)nc2cc[nH]c12 [IG-1] | 2340 nM | 
1200 nM | 1190 nM | 1430 nM |  |  | COC(=O)c1ccccc1Nc1nc(Nc2ccc(N3CCC(N4CCN(C)CC4)CC3)cc2OC)nc2cc[nH]c12 [IG-2] | 1800 nM | 
2720 nM | 5040 nM | 6930 nM |  |  | COC(=O)c1ccccc1Nc1nc(Nc2ccc(N3CCC(O)CC3)cc2)nc2cc[nH]c12 [IG-3] | 6870 nM | 
5110 nM | 4940 nM | 6100 nM |  |  | COC(=O)c1ccccc1Nc1nc(Nc2ccc(S(N)(=O)=O)cc2)nc2cc[nH]c12 [IG-4] | 8510 nM | 
7800 nM | > 10000 nM | > 10000 nM |  |  | COC(=O)c1ccccc1Nc1nc(Nc2ccc(N3CCOCC3)cc2)nc2cc[nH]c12 [IG-5] | > 10000 nM | 
1370 nM | 1520 nM | 1740 nM |  |  | COC(=O)c1ccccc1Nc1nc(Nc2ccc(N3CCN(C)CC3)cc2)nc2cc[nH]c12 [IG-6] | ~3140 nM | 
286 nM | 409 nM | 1210 nM |  |  | COC(=O)c1ccccc1Nc1nc(Nc2ccc(N3CCC(N4CCCC4)CC3)cc2OC)nc2cc[nH]c12 [IG-7] | ~994 nM | 
1830 nM | 1530 nM | 1670 nM |  |  | COC(=O)c1ccccc1Nc1nc(Nc2ccc(OCc3ccccn3)cc2)nc2cc[nH]c12 [IG-8] | 3860 nM | 
> 10000 nM | > 10000 nM | > 10000 nM |  |  | COC(=O)c1ccccc1Nc1nc(Nc2ccc(N3CCC(O)CC3)cc2OC(C)C)nc2cc[nH]c12 [IG-9] | > 10000 nM | 
9800 nM | > 10000 nM | 19600 nM |  |  | CCOc1cc(N2CCC(O)CC2)ccc1Nc1nc(Nc2ccccc2C(=O)OC)c2[nH]ccc2n1 [IG-10] | > 10000 nM | 
6500 nM | 4130 nM | 4080 nM |  |  | COC(=O)c1ccccc1Nc1nc(Nc2ccc(C(=O)N3CCC(N4CCN(C)CC4)CC3)cc2OC)nc2cc[nH]c12 [IG-12] | ~7740 nM | 
> 10000 nM | > 10000 nM | > 10000 nM |  |  | COC(=O)c1ccccc1Nc1nc(Nc2ccc(N3CCN(C)CC3)cn2)nc2cc[nH]c12 [IG-13] | > 10000 nM | 
~1260 nM | 884 nM | 1390 nM |  |  | COC(=O)c1ccccc1Nc1nc(Nc2cc(C)c(C3CCN(C)CC3)cc2OC)nc2cc[nH]c12 [IG-14] | ~2550 nM | 
1370 nM | 1390 nM | 1740 nM |  |  | COC(=O)c1ccccc1Nc1nc(Nc2ccc(N3CCOCC3)cc2OC)nc2cc[nH]c12 [IG-16] | 2350 nM | 
7610 nM | ~9460 nM | 7670 nM |  |  | COC(=O)c1ccccc1Nc1nc(Nc2ccc(C(=O)N3CCOCC3)cc2OC)nc2cc[nH]c12 [IG-17] | 9390 nM | 
 |  |  | > 10000 nM | > 10000 nM | Cn1ccc2nc(Nc3ccc(S(N)(=O)=O)cc3)nc(NCc3ccccc3S(C)(=O)=O)c21 [IIK-4] |  | > 10000 nM
> 10000 nM | > 10000 nM | > 10000 nM |  |  | CN1CCN(c2ccc(Nc3nc(NCc4ccccc4S(C)(=O)=O)c4[nH]ccc4n3)cc2)CC1 [IN-5] |  | 
